Tests used:
Assay type in all cases: cell-based, human
[1] = system: MCF-7 and MDA-MB-231 breast cancer cells; assay: Western immunoblot of Bax, caspase 7 and 9, p53; settings: 0.5 and 1 μM, 24 h
Experimental: (§1) Protein concentrations in the samples were determined using the Lowry method. Samples were prepared containing equal amounts of protein (30 μg/lane) and an appropriate amount of Laemmli buffer (120 mM Tris-HCl, 20% glycerol, 0.4% SDS, and 0.02% bromophenol blue, pH 6.8) containing 100 mM 1,4-dithiothreitol (DTT; Roche, Basel, Switzerland). Samples were denatured at 95 °C for 10 min. The proteins were separated using the SDS-PAGE method described by Laemmli. Proteins were separated on 12% SDS-PAGE gels. […] Transfer conditions were 250 mA, at 4-8 °C, overnight in freshly prepared Towbin buffer. Membranes were blocked with 5% non-fat dried milk (Santa Cruz Biotechnology, Dallas, Texas, USA) in TBS-T (20 mM Tris, 150 mM NaCl, 0.1% Tween-20, pH 7.6) for 1 h at room temperature with gentle shaking. After the blocking step, membranes were washed four times with TBS-T (4 × 15 min) and incubated with primary monoclonal antibodies (against β-actin, p53 (both from Santa Cruz Biotechnology, Dallas, TX, USA), Akt, AMPK (both from BD Transduction Laboratories, San Jose, CA, USA), Bax, caspase 7, and caspase 9 (all from Cell Signaling Technology, Danvers, MA, USA)). Membranes were incubated with primary antibodies overnight at 4 °C. […]

caspase 9 [2] = assay: Caspase 9 activity (FAM-FLICA, flow cytometry), MCF-7; settings: 24 h
Experimental: (§2) The FAM-FLICA® Caspase Assay kits (all from ImmunoChemistry Technologies, Bloomington, MN, USA) and flow cytometer (BD FACSCanto II, BD Biosciences Systems, San Jose, CA, USA) were used to evaluate the activity of caspase 3/7, 8, and 9. MCF-7 and MDA-MB-231 cells were treated with selenoesters under the study (EDAG-1 and EDAG-8) and a reference agent (cisplatin) at two different concentrations (0.5 and 1 µM; treatment duration: 24 h). Following this, cells were collected, washed twice with cold PBS, and resuspended in an Apoptosis Wash Buffer to a final concentration of 5 × 10^5 cells/mL. In the next step, 290 µL each of cell suspension was taken and transferred into tubes. Then 10 µL of FLICA solution diluted immediately before use (1:5 v/v, using PBS) was added to the cells, mixed by pipetting, and incubated in the dark for 1 h at 37 °C. After this time, the cells were washed twice with 2 mL Apoptosis Wash Buffer, centrifuged, and resuspended in 300 µL of the buffer. Thus, prepared samples were immediately analyzed using a BD FACSCanto II flow cytometer (10,000 events) with the FACSDiva 6.0 software (both from BD Biosciences Systems, San Jose, CA, USA). The equipment calibration was carried out using the BD Cytometer Setup and Tracking Beads (BD Biosciences, San Diego, CA, USA).

Bax = Bax protein level by flow cytometry, MCF-7; settings: 24 h
Experimental: For this purpose, Akt (PE), Bax (FITC), Bcl-2 (Alexa Fluor® 647), LC3A/B (Alexa Fluor® 488), and p53 (Alexa Fluor® 488) antibodies conjugated to different fluorochromes (all from Cell Signaling Technology, Beverly, MA, USA) were utilized. Each assay was performed according to the manufacturer's protocol available on their website. After incubation with the tested compounds, the cells were centrifuged, resuspended in 4% formaldehyde (100 μL/1 × 10^6 cells), and fixed for 15 min at room temperature. Afterward, to remove the formaldehyde, the cells were washed by centrifugation with excess PBS and the permeabilization step was triggered. For this purpose, ice-cold 90% methanol was added to the pre-chilled cell pellet, gently vortexed, and incubated for 1 h on ice. Later, the cells were washed by centrifugation with excess PBS again, resuspended in 100 μL of 1:100 diluted primary antibody (stain buffer was used for dilution), and incubated for 1 h at room temperature in the dark. After incubation, the cells were washed, resuspended in 300 μL PBS, and immediately tested with a flow cytometer (BD FACSCanto II, BD Biosciences Systems, San Jose, CA, USA; 10,000 events measured). The obtained results were analyzed using the FACSDiva 6.0 software (BD Biosciences Systems, San Jose, CA, USA). In the case of the p53 protein, the MRF values were obtained first during the flow cytometer readout utilizing FACSDiva software and later analyzed using FCS Express 7 (De Novo Software, Pasadena, CA, USA). The equipment calibration was performed using the BD Cytometer Setup and Tracking Beads (BD Biosciences, San Diego, CA, USA).

caspase 9 [3] = assay: Caspase 9 activity (FAM-FLICA, flow cytometry), MDA-MB-231; settings: 24 h
Experimental: as §2

[4] = system: MCF-7 and MDA-MB-231 breast cancer cells; assay: Western immunoblot of Akt and AMPK; settings: 0.5 and 1 μM, 24 h
Experimental: as §1

caspase 7 = assay: Caspase 3/7 activity (FAM-FLICA, flow cytometry), MCF-7; settings: MCF-7 (lack caspase 3), 24 h
Experimental: as §2

| SMILES | expression of Bax, caspase 7 and 9, p53 (Western blot, in words) [1] | Active caspase 9 ± SD (cells) (caspase 9 [2]; MCF-7, 0.5 μM) [%] | Active caspase 9 ± SD (cells) (caspase 9 [2]; MCF-7, 1 μM) [%] | Bax positive cells ± SD (Bax; MCF-7, 0.5 μM) [%] | Bax positive cells ± SD (Bax; MCF-7, 1 μM) [%] | Active caspase 9 ± SD (cells) (caspase 9 [3]; MDA-MB-231, 0.5 μM) [%] | Active caspase 9 ± SD (cells) (caspase 9 [3]; MDA-MB-231, 1 μM) [%] | expression of Akt and AMPK (Western blot, in words) [4] | Active caspase 7 ± SD (cells) (caspase 7; 0.5 μM) [%] | Active caspase 7 ± SD (cells) (caspase 7; 1 μM) [%] |
| --- | --- | --- | --- | --- | --- | --- | --- | --- | --- | --- |
| CC(=O)C[Se]C(=O)c1cc(C(=O)[Se]CC(C)=O)cc(C(=O)[Se]CC(C)=O)c1 [EDAG-8, Se,Se,Se-tris-(2-oxopropyl) benzene-1,3,5-tris-(carboxyselenoate)] | most active | 15.5 ± 0.5 | 22.8 ± 2.4 | 18.0 ± 1.5 | 32.1 ± 3.1 | 8.4 ± 0.9 | 32.5 ± 3.8 | most active | 7.4 ± 0.8 | 16.3 ± 2.6 |
| CC(=O)C[Se]C(=O)c1ccc(C(=O)[Se]CC(C)=O)cc1 [EDAG-1, Se,Se-bis(2-oxopropyl) benzene-1,4-bis(carboselenoate)] | slightly weaker effect | 7.1 ± 0.7 | 12.8 ± 1.4 | 6.1 ± 0.9 | 8.6 ± 1.0 | 5.2 ± 0.7 | 8.5 ± 0.6 | – | 5.7 ± 0.5 | 6.9 ± 0.5 |
| N.N.[Cl][Pt][Cl] [Cisplatin, reference compound] | – | 5.9 ± 0.1 | 6.1 ± 0.6 | 2.9 ± 0.9 | 3.0 ± 0.8 | 2.7 ± 0.1 | 2.8 ± 0.3 | did not significantly affect | 4.3 ± 0.3 | 4.6 ± 0.3 |
